Source: ChEMBL document CHEMBL1201862, “PubChem BioAssay data set” (2004)
Calls of active or inactive are those of the source.

How the values were obtained:
HEK293 = assay: optical interference in Abeta FP readout, dose response, artefact control for IDE activator project, biochemical, fluorescence polarization (AID 588442); assay type: functional, cell-based; conditions: Homo sapiens
Insulin-degrading enzyme = biological target: T1, Insulin-degrading enzyme (Homo sapiens, UniProt P14735); assay: activators of recombinant IDE enzyme, dose response, counter-screen for IDE activator project, biochemical, fluorescence polarization (AID 588681)
T1 sequence (P14735 whole entry): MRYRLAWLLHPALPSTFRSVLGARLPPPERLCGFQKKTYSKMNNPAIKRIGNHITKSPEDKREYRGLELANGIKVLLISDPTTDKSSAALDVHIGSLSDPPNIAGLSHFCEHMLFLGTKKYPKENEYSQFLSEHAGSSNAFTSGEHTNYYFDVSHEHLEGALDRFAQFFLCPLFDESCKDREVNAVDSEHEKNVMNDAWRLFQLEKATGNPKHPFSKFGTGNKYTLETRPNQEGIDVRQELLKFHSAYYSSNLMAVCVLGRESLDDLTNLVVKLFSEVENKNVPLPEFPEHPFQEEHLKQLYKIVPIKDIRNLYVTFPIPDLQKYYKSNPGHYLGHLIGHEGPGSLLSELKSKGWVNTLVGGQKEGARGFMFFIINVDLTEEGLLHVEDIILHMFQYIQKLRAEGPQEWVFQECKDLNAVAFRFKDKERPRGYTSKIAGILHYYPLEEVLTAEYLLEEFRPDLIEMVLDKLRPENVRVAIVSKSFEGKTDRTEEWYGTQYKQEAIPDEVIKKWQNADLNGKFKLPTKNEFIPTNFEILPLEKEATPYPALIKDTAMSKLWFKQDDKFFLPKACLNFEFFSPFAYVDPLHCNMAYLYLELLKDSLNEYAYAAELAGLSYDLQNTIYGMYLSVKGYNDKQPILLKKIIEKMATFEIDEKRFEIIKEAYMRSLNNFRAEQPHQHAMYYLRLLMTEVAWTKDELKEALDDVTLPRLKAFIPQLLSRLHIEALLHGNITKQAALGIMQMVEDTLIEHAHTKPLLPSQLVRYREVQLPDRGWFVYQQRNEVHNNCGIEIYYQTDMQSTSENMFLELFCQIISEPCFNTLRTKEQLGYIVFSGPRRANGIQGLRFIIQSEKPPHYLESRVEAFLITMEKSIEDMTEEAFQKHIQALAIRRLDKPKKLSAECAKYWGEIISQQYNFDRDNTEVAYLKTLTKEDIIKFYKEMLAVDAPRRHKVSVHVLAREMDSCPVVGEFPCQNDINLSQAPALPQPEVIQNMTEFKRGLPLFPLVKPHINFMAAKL

SUMO-activating enzyme = SUMO-activating enzyme (Homo sapiens, UniProt Q9UBT2); assay: SUMOylation inhibitor hit validation, confirmation, SUMOylation inhibitor project, biochemical, AlphaScreen (AID 2018); assay type: functional
cells [1] = assay type: functional, cell-based
Activin receptor type-1 = Activin receptor type-1 (Homo sapiens, UniProt Q04771); assay: Navigating the Kinome. Panel member name: ACVR1; assay type: functional
[2] = biological target: Homeodomain-interacting protein kinase 2 (Homo sapiens, UniProt Q9H2X6); assay type: functional;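 further: measured within a kinome-wide kinase profiling panel, HIPK2 being one panel member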
[3] = cytotoxicity toward NIH3T3 fibroblasts, dose response, counter-screen, cell-based, ATP luminescence, mouse fibroblasts (AID 2010); assay type: functional;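 further: cells exposed to compound for about 90 hours before reading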
[4] = Luminescence Cell-Based Dose Response HTS to Identify Inhibitors of 5'UTR Stem-Loop Driven Prion Protein mRNA Translation in H4 Neuroglioblastoma Cells. [Related pubchem assays: 1827 (Project Summary), 1813 (Primary HTS)]; assay type: functional
[5] = luciferase reporter signal reduction – luminescence, H4-C neuroglioblastoma cells, dose response (AID 2458); assay type: functional, cell-based;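 further: H4 neuroglioblastoma cells stably carrying a luciferase reporter gene fusion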
[6] = inhibitors of firefly luciferase expression or activity, dose response, H4 neuroglioma cells, luminescence (AID 1990); assay type: functional, cell-based
[7] = inhibitors of intracellular T. cruzi replication, confirmation, NIH3T3 host cells, beta-gal luminescence (AID 2044); assay type: functional, cell-based;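 further: intracellular parasites grown in NIH/3T3 mouse fibroblasts as host cells; luminescent beta-galactosidase reporter signal from transgenic T. cruzi replicating inside host cells; inhibitors lower the luminescence signal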
cells [8] = assay: cells
[9] = off-target signal loss in HeLa-CEM21 co-culture – HeLa F-luc CTL cells, cherry-picked, counter-screen for HIV-1 Env fusion inhibitor project, dose response (AID 652040); assay type: functional, cell-based;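 further: potency for signal decrease marking cytotoxic or nonspecific inhibition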
Hexokinase-1 = biological target: T2, Hexokinase-1 (Homo sapiens, UniProt P19367); assay: hexokinase 1 activators, dose response, selectivity assay for HKDC1 activator project, biochemical (AID 504762); assay type: functional
T2 sequence (P19367 whole entry): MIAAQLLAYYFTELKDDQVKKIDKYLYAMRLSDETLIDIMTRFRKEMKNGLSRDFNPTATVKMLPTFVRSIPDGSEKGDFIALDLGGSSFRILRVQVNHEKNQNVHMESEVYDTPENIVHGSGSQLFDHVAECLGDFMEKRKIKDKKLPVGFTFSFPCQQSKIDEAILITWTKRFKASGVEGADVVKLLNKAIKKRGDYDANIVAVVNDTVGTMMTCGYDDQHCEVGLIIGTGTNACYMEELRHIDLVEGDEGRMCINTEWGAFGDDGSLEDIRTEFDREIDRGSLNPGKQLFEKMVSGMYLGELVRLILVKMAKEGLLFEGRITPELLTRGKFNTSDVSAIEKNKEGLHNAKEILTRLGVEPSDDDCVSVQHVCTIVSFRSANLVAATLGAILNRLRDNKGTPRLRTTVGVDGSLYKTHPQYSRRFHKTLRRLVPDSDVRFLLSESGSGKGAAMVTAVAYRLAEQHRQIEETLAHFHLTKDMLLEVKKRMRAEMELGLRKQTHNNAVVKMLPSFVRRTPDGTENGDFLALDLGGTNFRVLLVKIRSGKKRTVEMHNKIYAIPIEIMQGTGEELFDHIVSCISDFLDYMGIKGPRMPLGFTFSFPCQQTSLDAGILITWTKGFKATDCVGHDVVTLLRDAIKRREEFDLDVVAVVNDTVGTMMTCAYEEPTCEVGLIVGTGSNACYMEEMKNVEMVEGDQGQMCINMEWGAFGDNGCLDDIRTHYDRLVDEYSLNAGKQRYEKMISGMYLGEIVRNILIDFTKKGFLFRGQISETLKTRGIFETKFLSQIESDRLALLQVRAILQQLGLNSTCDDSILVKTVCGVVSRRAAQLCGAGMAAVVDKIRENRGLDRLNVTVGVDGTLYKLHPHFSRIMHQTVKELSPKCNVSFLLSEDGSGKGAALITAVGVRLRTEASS

SUMO-activating enzyme, sequence (Q9UBE0 whole entry): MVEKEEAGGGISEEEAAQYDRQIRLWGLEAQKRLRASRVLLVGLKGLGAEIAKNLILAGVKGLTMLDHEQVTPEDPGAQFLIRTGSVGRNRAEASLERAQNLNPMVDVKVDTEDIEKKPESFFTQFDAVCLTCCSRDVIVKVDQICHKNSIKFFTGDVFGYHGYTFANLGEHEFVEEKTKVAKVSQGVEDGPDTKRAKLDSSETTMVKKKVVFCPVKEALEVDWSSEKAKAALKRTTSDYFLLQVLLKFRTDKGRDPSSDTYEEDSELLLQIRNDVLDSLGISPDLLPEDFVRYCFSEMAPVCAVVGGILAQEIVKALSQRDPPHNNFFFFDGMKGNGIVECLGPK
SUMO-activating enzyme, sequence (Q9UBT2 whole entry): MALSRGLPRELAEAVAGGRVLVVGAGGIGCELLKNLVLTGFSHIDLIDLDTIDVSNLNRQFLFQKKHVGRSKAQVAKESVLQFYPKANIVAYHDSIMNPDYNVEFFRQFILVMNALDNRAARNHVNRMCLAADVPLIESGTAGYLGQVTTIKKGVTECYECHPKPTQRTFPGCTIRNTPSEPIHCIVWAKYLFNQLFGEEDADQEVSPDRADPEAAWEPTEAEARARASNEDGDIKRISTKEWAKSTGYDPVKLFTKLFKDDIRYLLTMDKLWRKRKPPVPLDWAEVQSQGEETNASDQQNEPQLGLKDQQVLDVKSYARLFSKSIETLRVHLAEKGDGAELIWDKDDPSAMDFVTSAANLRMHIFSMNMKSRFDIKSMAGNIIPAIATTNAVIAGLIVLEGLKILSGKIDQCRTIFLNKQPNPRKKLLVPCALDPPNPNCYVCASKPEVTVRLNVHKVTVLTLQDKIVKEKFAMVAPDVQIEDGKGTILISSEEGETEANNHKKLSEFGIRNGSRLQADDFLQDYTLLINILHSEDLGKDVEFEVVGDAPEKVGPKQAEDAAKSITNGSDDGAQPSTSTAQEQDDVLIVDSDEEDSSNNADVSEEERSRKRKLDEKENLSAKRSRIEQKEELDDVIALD
Activin receptor type-1, sequence (Q04771 whole entry): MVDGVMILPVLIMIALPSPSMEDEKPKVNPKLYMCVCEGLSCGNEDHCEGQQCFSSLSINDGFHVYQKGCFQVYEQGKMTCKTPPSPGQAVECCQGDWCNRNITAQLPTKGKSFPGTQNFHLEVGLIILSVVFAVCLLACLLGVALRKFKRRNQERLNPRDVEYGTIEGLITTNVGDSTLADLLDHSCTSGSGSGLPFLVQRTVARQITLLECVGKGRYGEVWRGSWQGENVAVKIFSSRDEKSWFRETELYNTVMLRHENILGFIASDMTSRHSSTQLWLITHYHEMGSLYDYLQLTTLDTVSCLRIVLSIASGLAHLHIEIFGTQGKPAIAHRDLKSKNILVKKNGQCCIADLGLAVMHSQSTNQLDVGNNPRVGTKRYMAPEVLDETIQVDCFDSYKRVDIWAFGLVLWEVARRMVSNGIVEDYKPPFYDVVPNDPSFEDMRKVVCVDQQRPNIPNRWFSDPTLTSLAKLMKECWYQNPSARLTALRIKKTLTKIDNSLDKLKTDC
Homeodomain-interacting protein kinase 2, sequence (Q9H2X6 whole entry): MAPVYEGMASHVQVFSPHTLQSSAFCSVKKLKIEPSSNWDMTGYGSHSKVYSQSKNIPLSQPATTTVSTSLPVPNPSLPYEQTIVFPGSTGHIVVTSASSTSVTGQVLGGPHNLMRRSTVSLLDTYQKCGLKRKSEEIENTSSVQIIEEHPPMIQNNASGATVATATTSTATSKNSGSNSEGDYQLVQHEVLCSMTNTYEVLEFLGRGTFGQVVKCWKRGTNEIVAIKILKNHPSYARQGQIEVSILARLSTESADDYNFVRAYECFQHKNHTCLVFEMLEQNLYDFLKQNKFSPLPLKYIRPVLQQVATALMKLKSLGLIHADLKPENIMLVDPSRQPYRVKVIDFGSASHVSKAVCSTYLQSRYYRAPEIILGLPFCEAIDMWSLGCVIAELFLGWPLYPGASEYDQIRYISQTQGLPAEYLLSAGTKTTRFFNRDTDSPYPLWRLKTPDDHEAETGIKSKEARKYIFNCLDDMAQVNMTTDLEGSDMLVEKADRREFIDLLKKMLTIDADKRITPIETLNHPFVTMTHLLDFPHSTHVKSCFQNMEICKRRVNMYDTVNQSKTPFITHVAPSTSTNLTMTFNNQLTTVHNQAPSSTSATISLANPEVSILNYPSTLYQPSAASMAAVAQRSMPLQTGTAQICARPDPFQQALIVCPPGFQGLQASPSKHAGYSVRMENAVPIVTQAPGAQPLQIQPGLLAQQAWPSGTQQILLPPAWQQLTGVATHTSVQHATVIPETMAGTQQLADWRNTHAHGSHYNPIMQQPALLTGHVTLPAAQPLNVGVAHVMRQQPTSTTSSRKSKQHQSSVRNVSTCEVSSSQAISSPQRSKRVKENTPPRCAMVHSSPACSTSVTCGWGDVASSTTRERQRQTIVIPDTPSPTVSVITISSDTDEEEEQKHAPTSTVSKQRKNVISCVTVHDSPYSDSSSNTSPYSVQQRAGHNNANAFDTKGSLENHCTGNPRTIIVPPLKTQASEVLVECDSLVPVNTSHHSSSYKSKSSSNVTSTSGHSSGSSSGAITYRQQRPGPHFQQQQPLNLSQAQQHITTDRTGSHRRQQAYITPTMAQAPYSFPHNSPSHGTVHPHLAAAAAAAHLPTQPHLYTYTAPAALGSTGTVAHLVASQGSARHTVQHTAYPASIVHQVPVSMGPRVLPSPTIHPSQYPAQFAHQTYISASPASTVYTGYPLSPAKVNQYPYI

Compound: CNC[C@H](Cc1ccccc1)NC[C@@H](Cc1cccc2ccccc12)NCCc1ccc(C)cc1
- EC50 (HEK293): > 54.7 µM (inactive)
- EC50 (Insulin-degrading enzyme): > 54.7 µM (inactive)

Compound: O=C(Cc1ccccc1Cl)NC1(O)C(=O)c2ccccc2C1=O
- IC50 (SUMO-activating enzyme): 5.64 µM (active)

Compound: O=C(N/N=C/c1c(O)ccc2ccccc12)c1[nH]ncc1Br
- EC50 (cells [1]): 7.76 µM (active)

Compound: O=C(Nc1cc(-c2c[nH]c3ncccc23)cc(Cl)n1)c1ccccc1
- Ki (Activin receptor type-1): > 3.98 µM (inactive)
- Ki [2]: > 3.98 µM (inactive)

Compound: CCN1C(=Cc2sc3ccccc3[n+]2C)C=Cc2cccc(C)c21
- EC50 [3]: 1.86 µM (active)
- EC50 [4]: 6.43 µM (active)
- EC50 [5]: 3.14 µM (active)
- EC50 [6]: 142 nM (active)
- EC50 [7]: < 100 nM (active)
- EC50 (cells [8]): < 4 nM (active)
- AC50 [9]: 9.01 µM (active)
- EC50 (Hexokinase-1): > 80 µM (inactive)
